We go through two compounds from PMC3365588 (Structure(London, England:1993), 2009).

Experiment [1] concerns RNH activity of HIV-1. Conditions: read-out: IC50, inhibition of RNH activity; previously reported; cited from earlier work.
The subject of experiment [2] is HIV-1 integrase. In words: Inhibition of HIV-1 integrase. It counts as biochemical. Conditions: data not shown.
Experiment [3] deals with HIV-1 RT with benzoyl-L-phenylalanine in place of Tyr501. Conditions: cited from earlier work.
For experiment [4], the target named is T1, HIV-1 RT (Human immunodeficiency virus type 1 group M subtype B, UniProt P03366). In words: Direct binding assay using surface plasmon resonance. Conditions: for Kd: KD^SPR.
Experiment [5] deals with E. coli RNase H. The conditions noted are these: cited from earlier work.
Experiment [6] deals with RNase H cleavage by HIV-1 RT. The conditions noted are these: cited from earlier work.
In experiment [7] the target is T1, HIV-1 RT. In words: Direct binding assay using intrinsic protein fluorescence. Conditions: KD^fluor.
The mark [8] stands for this setting: Enzyme + MgCl2, free enzyme (no substrate).

Usually IC50 stands for the concentration needed to halve the response being measured. For the compound `CC(C)c1ccccc(=O)c1O` [α-thujaplicin], in experiment [1], the IC50 was 50 µM.

In general, Kd refers to the free concentration of one partner at which half of the binding sites on the other are occupied at equilibrium, for simple one-to-one binding. In the case of `CC(C)c1ccc(O)c(=O)c(O)c1` [β-thujaplicinol, 2,7-dihydroxy-4-(propan-2-yl)-cyclohepta-2,4,6-trien-1-one], the “Fold difference of IC50, RNH of HIV-1 RT vs HIV-1 integrase” value in experiment [2] is reported as “over 10 fold”. Besides, the “Effect of substituting benzoyl-L-phenylalanine for Tyr501 on inhibition” value in experiment [3] was “conferred resistance to inhibition”. The IC50 was over 100 µM in experiment [4] and 0.21 µM in experiment [1]. The Kd in experiment [4] (setting [8]) was 6 ± 1 µM; in experiment [4] (Enzyme, no metal (MgCl2 omitted, EDTA added)), over 100 µM; in experiment [7] (Enzyme + MgCl2 + ds RNA (non-hydrolyzable substrate analog)), 0.185 ± 0.008 µM; in experiment [7] (setting [8]), 1 µM. The “Fold difference of IC50, RNH of HIV-1 RT vs E. coli RNase H” value in experiment [5] is reported as about 300 fold. In experiment [6], the “Inhibition of polymerase-independent secondary cuts in the RNA strand” value is “inhibits polymerase-independent “secondary cuts””. In experiment [6] (pre-steady state conditions, ref Bielhartz et al), the “Inhibition of RNase H cleavage with pre-formed Enzyme·Substrate complex” value was “unable to inhibit RNase H cleavage”. Moreover, the “Inhibition of polymerase dependent cleavage” value in experiment [6] (ref Bielhartz et al) is “not an inhibitor of polymerase dependent cleavage”.
